Two molecules from US20050031537A1, “Multifunctional COX-2 inhibitors” (priority 2002, published 2005) can be followed below.

One experiment has as its system HER-2/neu. The experiment in a line: Western blotting for expression of HER-2/neu (test (b)). The experiment is classed as cell-based, human. The note with it: positive in 184B5/HER, BT474 and SKBR3 cells; 24 h; Western blot. An excerpt:
We turn now to the criterion (b), that is at least 50% decrease in level of or 50% downregulation of expression of Class I family of receptors tyrosine kinase. The Class I family of receptors tyrosine kinase is described in Reese, M. D., et al Stem Cells 15, pages 1-8 (1997), the whole of which in incorporated herein by reference. Members of the family include HER-2/neu, HER-3, HER-4 and epidermal growth factor receptor (EGFR) and are single-chain membrane spanning proteins which have significant homology to one another including about 80% amino acid identity in the tyrosine kinase domain.
HER-2/neu (erbB-2) gene product is a 185-kDA transmembrane receptor tyrosine kinase that is described in some detail in said Reese et al publication and overexpression thereof has been associated with tumor growth in several kinds of cancer.
To evaluate the expression of Class I family of receptors tyrosine kinase (EGFR, HER-2/neu), Western blotting can be performed. Antibodies for EGFR and HER-2/neu can be obtained from Santa Cruz Biotechnology, Inc.
Expression of EGFR (performed in 184B5, 184B5/HER, 1483, LNCaP, HeLa and CaSki cells)and HER-2/neu (performed in 184B5/HER, SKBR3 and BT474 cells) was assessed in cells after treatment with test compound for 24 hours. 5×10^6 cells were used for the treatment. Western blotting technique was used to assess the expression levels in cells treated with the test compound compared to vehicle alone. Western blotting was carried out as follows:
Cell lysates were prepared by treating cells with lysis buffer (150 mM NaCl, 100 mM Tris (pH 8.0), 1% Tween 20, 50 mM diethyldithiocarbamate, 1 mM EDTA, 1 mM phenylmethylsulfonyl fluoride, 10 μg/ml aprotinin, 10 μg/ml trypsin inhibitor and 10 μg/ml leupeptin). Lysates were sonicated for 20 s on ice and centrifuged at 10,000×g for 10 min to sediment the particulate material. The protein concentration of the supernatant was measured by the method of Lowry, O. H., et al., J. Biol. Chem. 193, 265-275 (195 1). SDS/PAGE was performed under reducing conditions on 10% polyacrylamide gels as described by Laemmli, U.K., Nature (Lond.) 227, 680-685 (1970). The resolved proteins were transferred onto nitrocellulose sheets as detailed by Towbin, H. et al., Proc. Natl. Acad. Sci. USA 76, 4350-4354 (1979). The nitrocellulose membrane was then incubated with anti-EGFR antiserum or anti-HER-2/neu antiserum. Secondary antibody to IgG conjugated to horseradish peroxidase was used. The various antisera were purchased from Santa Cruz Biotechnology, Inc., CA. The blots were probed with the Renaissance Western blot detection system according to the manufacturer's instructions (PerkinElmer Life Sciences, Boston, Mass.).
(In general: In western blotting, separated proteins are transferred to a membrane and probed.)

Another experiment concerns PPRE luciferase. Kind of experiment: PPRE luciferase activation, transient transfection reporter assay (test (a)). Format: cell-based, human. The note with it: positive in 184B5, 184B5/HER, HCA7, HCT116, SKBR3 and BT474 cells; 24 h treatment. From the text:
We turn now to criterion (a), that is activation of PPRE luciferase by at least 100%. PPRE-luciferase refers to a DNA construct containing the peroxisome proliferator activated receptor (PPAR) binding element joined to luciferase. Cells are transfected with PPRE-luciferase DNA. Ligands of PPAR induce luciferase activity. The ability of a test compound to stimulate PPRE-luciferase signifies that the test compound activates PPAR-mediated gene transcription. PPRE means peroxisome proliferator response element and the method by which PPRE-luciferase is constructed is described in Schoonjans, K., et al, J. Biol. Chem. 270, No. 33, 19269-19276 (Aug. 18, 1995). Use of PPRE-luciferase in a transient transfection to measure increase in promoter activity is disclosed in Subbaramaiah, K. et al, J. Biol. Chem. 270, No. 15, 12440-12448 (Apr. 13, […]).
For each well, 1.8 μg of PPRE3-tk-luciferase construct plasmid DNA (described in Forman, B. M., et al, Cell 83, 803 (1995)) plus 0.2 μg of pSV-β-galactosidase were introduced into cells using 8 μg of LipofectAMINE as per the manufacturer's instructions (Invitrogen, CA). After 7 h of incubation, the medium was replaced with basal medium. After transfection, cells were treated with test compound for 24 h. Reporter activities which include luciferase and β-galactosidase were measured in cellular extract 24 h later. Six wells were used for each of the conditions. Luciferase activity represents data that have been normalized with β-galactosidase.
The luciferase assay was performed as per the BD Pharmingen assay reagents. The Enhanced Luciferase Assay Kit provides a firefly luciferase substrate formulation (Substrates A and B) and cell lysis buffer intended for use in measuring luciferase expressed by transfected cells. Media from cell culture plates was removed and rinsed twice with phosphate buffered saline. Enough 1X cell lysis buffer was added to cover cells and incubated at room temperature for 15-20 min. Cells were dislodged by scraping and transferred to microcentrifuge tubes. […] 20-100 μl cell extract was placed into an assay cuvette. One automatic injector type luminometer is used for assay. Manually 100 μl of Substrate A was added to the assay cuvette and automatically 100 μl of Substrate B was injected. Measurements were performed using a luminometer, for a measurement time of 10 seconds.
The β-galactosidase assay was performed as follows:
50 μl of cell lysate from above was incubated with 50 μl of o-nitrophenyl-β-D-galactoside (ONPG; 4 mg/mL) in Z buffer, (Na2HPO4.7H2O (0.06M), NaH2PO4.H2O (0.04M), 1M KCl (0.01M), 1M MgSO4 (0.001M), β-mercaptoethanol (BME) (0.05M) pH 7.0). The reaction was stopped after sufficient yellow color has developed. The yellow color developed is measured at A420 […].

In another experiment the test system is cyclin D1. The experiment in a line: Western blotting for expression of cyclin D1 (test (c)). Format: cell-based, human. The note with it: positive in 184B5, 184B5/HER cells; 24 h; Western blot. On the procedure: Cyclin D1 is a protein that is important in regulating cell proliferation and is described in Ortega, S., et al, Biochimica et Biophysica Acta 1602, 73-87, (2002), the whole of which is incorporated by reference. […] Effects on expression of cyclin D1 was investigated in 184B5, 184B5/HER, HCA7, HCT116, SKBR3 and BT474 cells. The expression was assessed in cells after treatment with test compound or vehicle using 5×10^4 cells for 24 hours. Western blotting technique was used as follows to assess the expression levels of cyclin D1 in cells treated with the test compound and compared to levels in cells treated with vehicle alone. Cell lysates were prepared by treating cells with lysis buffer as described above. […] The resolved proteins were transferred onto nitrocellulose sheets. The nitrocellulose membrane was then incubated with anti-cyclin D1 antiserum. Secondary antibody to IgG conjugated to horseradish peroxidase was used. The various antisera were purchased from Santa Cruz Biotechnology, Inc., CA. The blots were probed with the Renaissance Western blot detection system according to the manufacturer's instructions (PerkinElmer Life Sciences, Boston, Mass.).

Experiment [1] concerns HPV16 oncoproteins E6 and E7. Kind of experiment: Western and Northern blotting for HPV16 oncoproteins E6 and E7 (test (d)). The note with it: positive in CaSki and SiHa cells. The experiment is classed as cell-based, human papillomavirus. On the procedure: We turn now to the criterion (d), that is at least 50% downregulation of expression of HPV16 oncoproteins E6 and E7.
Protein E6 and E7 which are expressed by HPV16 are believed to play a major role in carcinogenesis.
Western blotting and Northern blotting techniques were used to evaluate the expression of HPV E6 and E7 proteins. The cell lines used for the study were CaSKi and SiHa. The cells were treated with the test compound and cell lysate was obtained as described above and subjected to Western blotting analysis. The Western blotting analysis was performed as described above except anti-HPV 16 E7 antibody was used to probe the blot. The antibody was obtained from Santa Cruz Biotechnology, Inc. CA. For Northern blotting, total cellular RNA was isolated from cell monolayers using an RNA isolation kit from QIAGEN Inc. after treatment with the test compound. 10 μg of total cellular RNA per lane were electrophoresed in a formaldehyde-containing 1.2% agarose gel and transferred to nylon-supported membranes. After baking, membranes were prehybridized overnight in a solution containing 50% formamide, 5×sodium chloride-sodium phosphate-EDTA buffer (SSPE), 5×Denhardt's solution, 0.1% SDS and 100 μg/ml single-stranded salmon sperm DNA and then hybridized for 12 h at 42° C. with radiolabeled cDNA probes for human HPV16 E6 or E7 cDNAs and 18S rRNA. E6 and E7 (as described in Woodworth, C. D., Cancer Res. 16, 4397-4402 (2000)) and 18S rRNA probes were labeled with [^32P]-CTP by random priming. After hybridization, membranes were washed twice for 20 min at room temperature in 2×SSPE-0.1% SDS, twice for 20 min in the same solution at 55° C., and twice for 20 min in 0.1×SSPE-0.1% SDS at 55° C. Washed membranes were then subjected to autoradiography.

In the case of `COc1ccc2c(c1)c(CC(=O)NCCc1ccccc1)c(C)n2C(=O)c1ccc(Cl)cc1` [Indomethacin Analog 2, N-(2-phenylethyl)-indomethacin amide], the “Test (b) HER-2/neu: at least 50% decrease in level of or 50% downregulation of expression” value with HER-2/neu was “+ (A plus sign in the table indicates a positive result, that is meeting the test for each cell line as indicated above as providing a positive result)”. Besides, the “Test (a) activation of PPRE luciferase by at least 100%” value with PPRE luciferase is on record as “+ (A plus sign in the table indicates a positive result, that is meeting the test for each cell line as indicated above as providing a positive result)”. The “Test (c) at least 50% downregulation of expression of cyclin D1” value in the experiment with cyclin D1 is recorded as “+ (A plus sign in the table indicates a positive result, that is meeting the test for each cell line as indicated above as providing a positive result)”. For the same molecule, the “Test (d) at least 50% downregulation of expression of HPV16 oncoproteins E6 and E7” value in experiment [1] is given as “+ (A plus sign in the table indicates a positive result, that is meeting the test for each cell line as indicated above as providing a positive result)”.

For the molecule “1-(p-chlorobenzoyl)-5-methoxy-2-methyl-1H-indole-3-octylacetamide [Indomethacin Analog 6]”, in the experiment with PPRE luciferase, the “Test (a) activation of PPRE luciferase by at least 100%” value is recorded as “+ (A plus sign in the table indicates a positive result, that is meeting the test for each cell line as indicated above as providing a positive result)”. The “Test (d) at least 50% downregulation of expression of HPV16 oncoproteins E6 and E7” value in experiment [1] is “+ (A plus sign in the table indicates a positive result, that is meeting the test for each cell line as indicated above as providing a positive result)”.
